In patent US9801922B2, “Compositions and methods of treating cancer” (UNIVERSITY OF IOWA RESEARCH FOUNDATION, priority 2011, dated 2017):

Experiments:
HMECs = assay: MitoSOX red oxidation, HMEC; format: cell-based, human
Description: FIGS. 4A-4C: MitoSOX oxidation in SUM159, MDA-MB231 and HMECs cells treated with BSO, DTPP and AUR. Asynchronously growing cultures of SUM159 (Panel A) MDA-MB231 (Panel B) and HMECs (Panel C) were plated and treated as described in FIG. 1. Monolayer cultures were harvested and trypsinized, washed once with PBS and labeled 20 minutes with 2 μM MitoSOX (in 0.1% DMSO) in PBS containing 5 mM pyruvate at 37° C. Each sample was then analyzed for the Mean fluorescence Intensity (MFI) of 10,000 cells by flow cytometry. Samples were assayed in triplicate; mean±1 SD of 1 experiment containing 3 treatment dishes per group (n=3), * or ^p<0.001 as compared to Control.
MitoSOX™ red oxidation to estimate mitochondrial superoxide production: To determine if DTPP can alter steady-state levels of superoxide originating from mitochondria in SUM159, MDA-MB231 and HMEC cells, the cationic superoxide sensitive dye, MitoSOX™red (Molecular Probes), was used. Cells were plated and treated as described earlier in clonogenic survival experiment. After the exposure, cells were trypsinized and washed with 5 mM/L pyruvate containing PBS once then labeled with MitoSOX™red (2 μM, in 0.1% DMSO, 20 minutes) at 37° C. After labeling, cells were kept on ice. Samples were analyzed using a FACScan flowcytometer (Becton Dickinson Immunocytometry System, INC., Mountain View, Calif.) (excitation 488 nm, emission 585 nm band-pass filter). The mean fluorescence intensity of 10,000 cells was analyzed in each sample and corrected for autofluorescence from unlabeled cells. The MFI data was normalized to control levels.

[1] = test system: SUM159 human breast cancer cells; assay: Clonogenic cell survival, SUM159; format: cell-based; details: for cytotoxicity (clonogenic survival), in words: 500 nM AUR 15 min
Description: FIGS. 1A-D: BSO, DTPP and AUR treated SUM159, MDA-MB231 and HMEC Clonogenic survival. In Panel A (SUM 159), B (MDA-MB231) and C(HMEC), 150,000 cells/dish SUM159 or MDA-MB231 and 300,000 cells/dish were plated in 60 mm tissue culture dishes. After 48 hours, cells were given fresh complete HMECs media and treated with 100 μM BSO+/1 μM DTPP for 24 hours. 500 nM AUR were added 15 mins before the trypsinization of cells for clonogenic survival assay. In panel A-C, The error bars represent mean±1 SD of n=1 treatment dishes done in 3 separate experiments where each treatment dish was used to prepare 6-10 replicate cloning dishes for analysis. *p<0.001 as compared to Control. […] Mice growing Sum159 xenograft tumors were treated with 100 μM DTPP in drinking water for 2 weeks followed by i.p. injections of BSO 675 mg/kg followed in 2 hrs with Au 2.7 mg/kg. The day following injections tumors were harvested, digested and stained for ALDH positive cells. Each bar represents an average of at least three tumors. Error bars are SEM. *p<0.05 vs. control.
FIG. 2: BSO and AUR treated SUM159 dose response Clonogenic survival. 150,000 cells/dish SUM159 were plated in 60 mm tissue culture dishes. After 48 hours, cells were given fresh complete HMECs media and treated with 100 μM BSO 24 hours. 500 nM AUR were added 15 mins, 30 mins, 45 mins, 1 hr, 1.5 hrs and 3 hrs before the trypsinization. Cells were then collected and plated for clonogenic survival. In panel A-C, The error bars represent mean±1 SD of n=1 treatment dishes done in 3 separate experiments where each treatment dish was used to prepare 6-10 replicate cloning dishes for analysis. *p<0.001 as compared to SUM159 Control. ^p<0.001 as compared to HMEC Control.
FIGS. 3A-3B: Clonogenic survival of SUM159 and MDA-MB231 cells treated with BSO, DTPP and AUR in the presence of 20 mM NAC. Asynchronously growing cultures of SUM159 (panel A) and MDA-MB231 (panel B) were plated as described in FIG. 1. After 48 hours, cells were given fresh complete HMECs media and treated with 100 μM BSO+/1 μM DTPP in the presence or absence of 20 mM NAC for 24 hours. 500 nM AUR were added 15 mins before the trypsinization. cells were then collected and plated for clonogenic survival. In panel A, B, The error bars represent mean±1SD of n=1 treatment dishes done in 3 separate experiments where each treatment dish was used to prepare 6-10 replicate cloning dishes for analysis. *p<0.001 as compared to W/O NAC Control. ^p<0.001 as compared to W/NAC Control.
FIG. 6: BSO, DTPP and AUR treated SUM159 in the presence of 100 U/ml PEGSOD+/PEGCAT Clonogenic survival. Asynchronously growing cultures of SUM159 were plated as described in FIG. 1. After 48 hours, cells were given fresh complete HMECs media and treated with 100 μM BSO+/1 μM DTPP in the presence or absence of PEGSOD+/PEGCAT (100 U/mL each) for 24 hours. Control received PEG alone (18 μM) for 24 hours. 500 nM AUR were added 15 mins before the trypsinization. Cells were then collected and plated for clonogenic survival. In panel A, B, The error bars represent mean±1 SD of n=1 treatment dishes done in 3 separate experiments where each treatment dish was used to prepare 6-10 replicate cloning dishes for analysis. *p<0.001 as compared to PEG alone Control. ^p<0.001 as compared to PEGCAT Control, $ p<0.001 as compared to PEGSOD+CAT Control.
Clonogenic cell survival: To determine whether the DTPP exposure alters the cell proliferation in MDA-MB231, SUM159 and HMECs, 150,000 cells/dish of MDA-MB231 and SUM159 cells, and 300,000 cells/dish HMECs were plated in 60 mm tissue culture dishes. After 48 hours, at 24 hours prior to each clonogenic survival experiment, media in all the dishes were changed to HMECs media and then treated with 100 μM BSO and 1 μM DTPP for 24 h. Cells were treated with AUR for 15 minutes prior to each clonogenic survival experiment. […]

Compound | change in MitoSOX oxidation, in words (HMECs) | cytotoxicity (clonogenic survival), in words ([1]; 100 μM BSO, 1 μM DTPP 24 h) | increase in MitoSOX oxidation (HMECs; 1 μM DTPP, 100 μM BSO 24 h, 500 nM AUR 15 min) [fold] | survival fraction (of control cells) in the presence of NAC ([1]; 1 μM DTPP with 20 mM NAC, 24 hrs) | decrease in cell survival / survival fraction compared to control ([1]; 100 μM BSO and/or 1 μM DTPP for 24 hours) | clonogenic cell killing ([1]; 100 μM BSO, 1 μM DTPP 24 h, 500 nM AUR 15 min (FIG. 1A)) | clonogenic survival without PEGSOD+PEGCAT ([1]; PEG alone control) [%] | clonogenic survival with PEGSOD+PEGCAT ([1]; PEGSOD+PEGCAT 100 U/ml each) [%]
CC[PH](CC)(CC)[Au][S][C@@H]1O[C@H](COC(C)=O)[C@@H](OC(C)=O)[C@H](OC(C)=O)[C@H]1OC(C)=O [AUR, S-triethylphosphinegold(I)-2,3,4,6-tetra-O-acetyl-1-thio-β-D-glucopyranoside] | no effects on MitoSOX oxidation | did not cause any significant cytotoxicity | – | – | – | – | – | –
CCCCS(=N)(=O)CCC(N)C(=O)O [BSO, L-buthionine-[S,R]-sulfoximine, reference compound] | no effects on MitoSOX oxidation | did not cause significantly cytotoxicity | – | – | – | – | – | –
CCCCCCCCCC[P+](c1ccccc1)(c1ccccc1)c1ccccc1 [DTPP, Decyl-Triphenylphosphonium] | – | – | 10 | at least 70% | 70%-80% | at least 70% | 35 | 70
